Patent US8377884B2, “Variants of C-type natriuretic peptides” (Biomarin Pharmaceutical Inc., priority 2007, dated 2013)
Like-named read-outs stand apart in the source and are kept apart here. Bridge positions count the residues as written; N and C are the ends. Square brackets hold non-standard residues; d marks the D form. Peptide text beside a SMILES is read from it. tBuAla = CC(C)(C)C[C@H](N)C(=O)O; Cit = NC(=O)NCCC[C@H](N)C(=O)O

Target: T1, NPR-B (Mus musculus, UniProt Q6VVW5)
T1 construct: Murine NIH3T3 cells express endogenously the CNP signaling receptor, NPR-B; endogenous in cells; host or cells: NIH3T3 (murine fibroblasts)
T1 sequence (Q6VVW5 17-1047): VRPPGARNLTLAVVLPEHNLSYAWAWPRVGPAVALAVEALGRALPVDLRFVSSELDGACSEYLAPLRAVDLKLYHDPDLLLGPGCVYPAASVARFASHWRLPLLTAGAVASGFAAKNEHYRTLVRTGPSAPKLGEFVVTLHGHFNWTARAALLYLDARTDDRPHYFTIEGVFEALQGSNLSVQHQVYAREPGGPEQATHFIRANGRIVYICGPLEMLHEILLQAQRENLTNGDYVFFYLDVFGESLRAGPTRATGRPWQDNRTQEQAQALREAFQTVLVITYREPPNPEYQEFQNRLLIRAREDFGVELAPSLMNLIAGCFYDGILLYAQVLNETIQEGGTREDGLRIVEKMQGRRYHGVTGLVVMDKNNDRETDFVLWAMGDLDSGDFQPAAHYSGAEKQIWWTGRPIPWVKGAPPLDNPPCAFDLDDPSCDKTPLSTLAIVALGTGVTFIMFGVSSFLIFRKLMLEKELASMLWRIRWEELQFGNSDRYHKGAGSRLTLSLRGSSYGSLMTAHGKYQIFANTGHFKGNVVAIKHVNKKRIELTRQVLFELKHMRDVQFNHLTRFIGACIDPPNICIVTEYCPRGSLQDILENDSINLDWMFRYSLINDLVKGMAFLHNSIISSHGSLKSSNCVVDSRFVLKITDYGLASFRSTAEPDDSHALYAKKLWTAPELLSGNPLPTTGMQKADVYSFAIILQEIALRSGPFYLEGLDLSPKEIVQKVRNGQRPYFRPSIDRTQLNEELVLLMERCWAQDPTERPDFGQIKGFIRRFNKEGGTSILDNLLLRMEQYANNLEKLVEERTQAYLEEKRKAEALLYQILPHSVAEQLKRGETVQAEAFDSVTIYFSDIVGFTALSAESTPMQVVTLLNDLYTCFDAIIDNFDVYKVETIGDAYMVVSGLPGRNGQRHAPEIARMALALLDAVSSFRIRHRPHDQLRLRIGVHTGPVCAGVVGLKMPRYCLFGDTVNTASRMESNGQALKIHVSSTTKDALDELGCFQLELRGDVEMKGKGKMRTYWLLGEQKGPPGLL
Assay: Stimulation of cGMP production in NIH3T3 cells
Type: cell-based, Murine
Details: for cGMP response relative to 1 uM CNP22 (%) at 0.01 µM: read-out: cGMP Response rel. to 1 uM CNP22, 10 nM; for cGMP response relative to 1 uM CNP22 (%) at 1 µM: read-out: cGMP Response rel. to 1 uM CNP22, 1 uM

[1] = NIH3T3 cells, 10 nM natriuretic peptide, normalized to cell number and cGMP production with 1 uM wtCNP22
[2] = NIH3T3 cells, 1 uM natriuretic peptide, normalized to cell number and cGMP production with 1 uM wtCNP22

Row | Compound | cGMP response relative to 1 uM CNP22 (%) at 0.01 µM [1] | cGMP response relative to 1 uM CNP22 (%) at 1 µM [2] | cGMP response relative to 1 uM CNP22 (%) at 0.01 µM (NIH3T3, […]) | cGMP response relative to 1 uM CNP22 (%) at 1 µM (NIH3T3, […])
1 | CC[C@H](C)[C@@H]1NC(=O)[C@H](CCCNC(=N)N)NC(=O)[C@H](CC(=O)O)NC(=O)[C@H](CC(C)C)NC(=O)[C@H](CCCCN)NC(=O)[C@H](CC(C)C)NC(=O)[C@H](C(C)C)NC(=O)[C@H](Cc2ccccc2)NC(=O)[C@@H](NC(=O)CNC(=O)[C@H](CCCNC(=N)N)NC(=O)[C@H](CO)NC(=O)[C@H](CC(C)C)NC(=O)CN)CSSC[C@@H](C(=O)O)NC(=O)CNC(=O)[C@H](CC(C)C)NC(=O)CNC(=O)[C@H](CO)NC(=O)[C@H](CCSC)NC(=O)[C@H](CO)NC(=O)CNC1=O [AA] (H-GLSRGCFVLKLDRIGSMSGLGC-OH; disulfide 6-22 (inferred); N-terminus and C-terminus assumed) | 3% | 25% |  | 
2 | CC[C@H](C)[C@@H]1NC(=O)[C@H](CCCNC(=N)N)NC(=O)[C@H](CC(=O)O)NC(=O)[C@H](CC(C)C)NC(=O)[C@H](CCCCN)NC(=O)[C@H](CC(C)C)NC(=O)[C@H](CO)NC(=O)[C@H](Cc2ccccc2)NC(=O)[C@@H](NC(=O)CNC(=O)[C@H](CCCNC(=N)N)NC(=O)[C@H](CO)NC(=O)[C@H](CC(C)C)NC(=O)CN)CSSC[C@@H](C(=O)O)NC(=O)CNC(=O)[C@H](CC(C)C)NC(=O)CNC(=O)[C@H](CO)NC(=O)[C@H](CCSC)NC(=O)[C@H](CO)NC(=O)CNC1=O [AB] (H-GLSRGCFSLKLDRIGSMSGLGC-OH; disulfide 6-22 (inferred); N-terminus and C-terminus assumed) | 26 ± 26% | 86 ± 17% |  | 
3 | CC[C@H](C)[C@@H]1NC(=O)[C@H](CCCNC(=N)N)NC(=O)[C@H](CC(=O)O)NC(=O)[C@H](CC(C)C)NC(=O)[C@H](CCCCN)NC(=O)[C@H]([C@@H](C)O)NC(=O)CNC(=O)[C@H](Cc2ccccc2)NC(=O)[C@@H](NC(=O)CNC(=O)[C@H](CCCNC(=N)N)NC(=O)[C@H](CO)NC(=O)[C@H](CC(C)C)NC(=O)CN)CSSC[C@@H](C(=O)O)NC(=O)CNC(=O)[C@H](CC(C)C)NC(=O)CNC(=O)[C@H](CO)NC(=O)[C@H](CCSC)NC(=O)[C@H](CO)NC(=O)CNC1=O [AD] (H-GLSRGCFGTKLDRIGSMSGLGC-OH; disulfide 6-22) | 4% | 68% |  | 
4 | CC[C@H](C)[C@@H]1NC(=O)[C@H](CCCNC(=N)N)NC(=O)[C@H](CC(=O)O)NC(=O)[C@H](CC(C)C)NC(=O)[C@H](CCCCN)NC(=O)[C@H](CC(C)C)NC(=O)CNC(=O)[C@H](Cc2ccccc2)NC(=O)[C@@H](NC(=O)CNC(=O)[C@H](CCCNC(=N)N)NC(=O)[C@H](CO)NC(=O)[C@H](CC(C)C)NC(=O)CN)CSSC[C@@H](C(=O)O)NC(=O)CNC(=O)[C@H](CC(C)C)NC(=O)CNC(=O)[C@H](CO)NC(=O)[C@H](CCSC)NC(=O)[C@H](CO)NC(=O)[C@H](CCCNC(=N)N)NC1=O [AE] (H-GLSRGCFGLKLDRIRSMSGLGC-OH; disulfide 6-22 (inferred); N-terminus and C-terminus assumed) |  |  | 0.3% | 0.3%
5 | CC[C@H](C)[C@@H]1NC(=O)[C@H](CCCNC(=N)N)NC(=O)[C@H](CC(=O)O)NC(=O)[C@H](CC(C)C)NC(=O)[C@H](CCCCN)NC(=O)[C@H](CC(C)C)NC(=O)CNC(=O)[C@H](Cc2ccccc2)NC(=O)[C@@H](NC(=O)CNC(=O)[C@H](CCCNC(=N)N)NC(=O)[C@H](CO)NC(=O)[C@H](CC(C)C)NC(=O)CN)CSSC[C@@H](C(=O)O)NC(=O)CNC(=O)[C@H](CC(C)C)NC(=O)CNC(=O)[C@H](CO)NC(=O)[C@H](CCSC)NC(=O)[C@H](CO)NC(=O)[C@H](CCCNC(N)=O)NC1=O [AF] (H-GLSRGCFGLKLDRI[Cit]SMSGLGC-OH; disulfide 6-22 (inferred); N-terminus and C-terminus assumed) |  |  | 1.4% | 2%
6 | CC[C@H](C)[C@@H]1NC(=O)[C@H](CCCNC(=N)N)NC(=O)[C@H](CC(=O)O)NC(=O)[C@H](CC(C)C)NC(=O)[C@H](CCCCN)NC(=O)[C@H](CC(C)C)NC(=O)CNC(=O)[C@H](Cc2ccccc2)NC(=O)[C@@H](NC(=O)CNC(=O)[C@H](CCCNC(=N)N)NC(=O)[C@H](CO)NC(=O)[C@H](CC(C)C)NC(=O)CN)CSSC[C@@H](C(=O)O)NC(=O)CNC(=O)[C@H](CC(C)C)NC(=O)CNC(=O)[C@H](CO)NC(=O)[C@H](C(C)C)NC(=O)[C@H](CO)NC(=O)CNC1=O [AG] (H-GLSRGCFGLKLDRIGSVSGLGC-OH; disulfide 6-22 (inferred); N-terminus and C-terminus assumed) |  |  | 10% | 65%
7 | CC[C@H](C)[C@@H]1NC(=O)[C@H](CCCNC(=N)N)NC(=O)[C@H](CC(=O)O)NC(=O)[C@H](CC(C)C)NC(=O)[C@H](CCCCN)NC(=O)[C@H](CC(C)C)NC(=O)CNC(=O)[C@H](Cc2ccccc2)NC(=O)[C@@H](NC(=O)CNC(=O)[C@H](CCCNC(=N)N)NC(=O)[C@H](CO)NC(=O)[C@H](CC(C)C)NC(=O)CN)CSSC[C@@H](C(=O)O)NC(=O)CNC(=O)[C@H](C(C)C)NC(=O)CNC(=O)[C@H](CO)NC(=O)[C@H](CCSC)NC(=O)[C@H](CO)NC(=O)CNC1=O [AJ] (H-GLSRGCFGLKLDRIGSMSGVGC-OH; disulfide 6-22 (inferred); N-terminus and C-terminus assumed) | 0.2% | 8% |  | 
8 | CC[C@H](C)[C@@H]1NC(=O)[C@H](CCCNC(=N)N)NC(=O)[C@H](CC(=O)O)NC(=O)[C@H](CC(C)C)NC(=O)[C@H](CCCCN)NC(=O)[C@H](CC(C)C)NC(=O)CNC(=O)[C@H](Cc2ccccc2)NC(=O)[C@@H](NC(=O)CNC(=O)[C@H](CCCNC(=N)N)NC(=O)[C@H](CO)NC(=O)[C@H](CC(C)C)NC(=O)CN)CSSC[C@@H](C(=O)O)NC(=O)CNC(=O)[C@H](CC(C)(C)C)NC(=O)CNC(=O)[C@H](CO)NC(=O)[C@H](CCSC)NC(=O)[C@H](CO)NC(=O)CNC1=O [AK] (H-GLSRGCFGLKLDRIGSMSG[tBuAla]GC-OH; disulfide 6-22 (inferred); N-terminus and C-terminus assumed) | 1% | 21% |  | 
9 | CC[C@H](C)[C@@H]1NC(=O)[C@H](CCCNC(=N)N)NC(=O)[C@H](CC(=O)O)NC(=O)[C@H](CC(C)C)NC(=O)[C@H](CCCCN)NC(=O)[C@H](CC(C)C)NC(=O)CNC(=O)[C@H](Cc2ccccc2)NC(=O)[C@@H](N)CSSC[C@@H](C(=O)O)NC(=O)CNC(=O)[C@H](CC(C)C)NC(=O)CNC(=O)[C@H](CO)NC(=O)[C@H](CCSC)NC(=O)[C@H](CO)NC(=O)CNC1=O [AX] (H-CFGLKLDRIGSMSGLGC-OH; disulfide 1-17 (inferred); N-terminus and C-terminus assumed) | 18% | 69% |  | 
10 | CC[C@H](C)[C@@H]1NC(=O)[C@H](CCCNC(=N)N)NC(=O)[C@H](CC(=O)O)NC(=O)[C@H](CC(C)C)NC(=O)[C@H](CCCNC(N)=O)NC(=O)[C@H](CC(C)C)NC(=O)CNC(=O)[C@H](Cc2ccccc2)NC(=O)[C@@H](NC(=O)CNC(=O)[C@H](CCCNC(=N)N)NC(=O)[C@H](CO)NC(=O)[C@H](CC(C)C)NC(=O)CN)CSSC[C@@H](C(=O)O)NC(=O)CNC(=O)[C@H](CC(C)C)NC(=O)CNC(=O)[C@H](CO)NC(=O)[C@H](CCSC)NC(=O)[C@H](CO)NC(=O)CNC1=O [BF] (H-GLSRGCFGL[Cit]LDRIGSMSGLGC-OH; disulfide 6-22 (inferred); N-terminus and C-terminus assumed) | 6% | 33% |  | 
11 | CC[C@H](C)[C@@H]1NC(=O)[C@H](CCCNC(=N)N)NC(=O)[C@H](CC(=O)O)NC(=O)[C@H](CC(C)C)NC(=O)[C@H](CCC(N)=O)NC(=O)[C@H](CC(C)C)NC(=O)CNC(=O)[C@H](Cc2ccccc2)NC(=O)[C@@H](NC(=O)CNC(=O)[C@H](CCCNC(=N)N)NC(=O)[C@H](CO)NC(=O)[C@H](CC(C)C)NC(=O)CN)CSSC[C@@H](C(=O)O)NC(=O)CNC(=O)[C@H](CC(C)C)NC(=O)CNC(=O)[C@H](CO)NC(=O)[C@H](CCSC)NC(=O)[C@H](CO)NC(=O)CNC1=O [BG] (H-GLSRGCFGLQLDRIGSMSGLGC-OH; disulfide 6-22) | 9% | 45% |  | 
